Test results published in paper PMC2139966 (The Journal of Cell Biology, 1997).

Target: band 3 (anion exchanger AE1)
Assay: […]SO4/SO4 exchange in band […] proteoliposomes
Assay type: biochemical, Oryctolagus cuniculus

`O=[N+]([O-])c1ccc(/C=C/c2ccc([N+](=O)[O-])cc2S(=O)(=O)O)c(S(=O)(=O)O)c1` [DNDS, 4,4′-dinitorsostilbene-2,2′-disulfonic acid] gave a Ki of 2 ± 1 µM.
